± gives the expanded uncertainty stated by the source.
Experiment: xn = mol fraction of the nth substance listed
Conditions: 101 kPa, Liquid; for viscosity: Capillary tube (Ostwald / Ubbelohde) method

CCOC(=O)OCC [diethyl carbonate] + CC(C)O
Conditions	mass density [kg/m3]	viscosity [mPa·s]
293.15 K, x1 = 0.1015	812.95 ± 2.5	1.586 ± 0.012
293.15 K, x1 = 0.1993	837.12 ± 2.3	1.252 ± 0.01
293.15 K, x1 = 0.3027	861.52 ± 2.1	1.073 ± 0.009
293.15 K, x1 = 0.4029	880.88 ± 1.9	0.946 ± 0.009
293.15 K, x1 = 0.5018	901.57 ± 1.7	0.865 ± 0.008
293.15 K, x1 = 0.5905	914.48 ± 1.6	0.827 ± 0.008
293.15 K, x1 = 0.7267	936.22 ± 1.4	0.791 ± 0.008
293.15 K, x1 = 0.8053	947.93 ± 1.3	0.781 ± 0.008
293.15 K, x1 = 0.8494	954.32 ± 1.2	0.782 ± 0.008
293.15 K, x1 = 1	975 ± 1	0.8 ± 0.008
298.15 K, x1 = 0.1015	808.12 ± 2.6	1.393 ± 0.011
298.15 K, x1 = 0.1993	831.98 ± 2.3	1.119 ± 0.009
298.15 K, x1 = 0.3027	855.03 ± 2.1	0.964 ± 0.009
298.15 K, x1 = 0.4029	875.34 ± 1.9	0.86 ± 0.008
298.15 K, x1 = 0.5018	893.55 ± 1.8	0.791 ± 0.008
298.15 K, x1 = 0.5905	908.68 ± 1.6	0.76 ± 0.008
298.15 K, x1 = 0.7267	930.3 ± 1.4	0.731 ± 0.008
298.15 K, x1 = 0.8053	941.94 ± 1.3	0.726 ± 0.008
298.15 K, x1 = 0.8494	948.31 ± 1.3	0.726 ± 0.008
298.15 K, x1 = 1	968.97 ± 1.1	0.746 ± 0.008
303.15 K, x1 = 0.1015	803.27 ± 2.6	1.223 ± 0.01
303.15 K, x1 = 0.1993	826.84 ± 2.4	0.996 ± 0.009
303.15 K, x1 = 0.3027	849.57 ± 2.2	0.867 ± 0.008
303.15 K, x1 = 0.4029	869.48 ± 2	0.782 ± 0.008
303.15 K, x1 = 0.5018	887.62 ± 1.8	0.726 ± 0.008
303.15 K, x1 = 0.5905	902.71 ± 1.7	0.7 ± 0.008
303.15 K, x1 = 0.7267	924.09 ± 1.5	0.677 ± 0.007
303.15 K, x1 = 0.8053	935.6 ± 1.4	0.674 ± 0.007
303.15 K, x1 = 0.8494	941.89 ± 1.3	0.676 ± 0.007
303.15 K, x1 = 1	962.39 ± 1.1	0.695 ± 0.008
313.15 K, x1 = 0.1015	793.12 ± 2.7	0.964 ± 0.009
313.15 K, x1 = 0.1993	816.46 ± 2.5	0.806 ± 0.008
313.15 K, x1 = 0.3027	839.13 ± 2.3	0.716 ± 0.008
313.15 K, x1 = 0.4029	859.2 ± 2.1	0.657 ± 0.007
313.15 K, x1 = 0.5018	877.18 ± 1.9	0.618 ± 0.007
313.15 K, x1 = 0.5905	892.18 ± 1.8	0.601 ± 0.007
313.15 K, x1 = 0.7267	913.63 ± 1.6	0.588 ± 0.007
313.15 K, x1 = 0.8053	925.25 ± 1.5	0.588 ± 0.007
313.15 K, x1 = 0.8494	931.59 ± 1.4	0.59 ± 0.007
313.15 K, x1 = 1	952.32 ± 1.2	0.61 ± 0.007
323.15 K, x1 = 0.1015	781.71 ± 2.8	0.78 ± 0.008
323.15 K, x1 = 0.1993	804.58 ± 2.6	0.668 ± 0.008
323.15 K, x1 = 0.3027	826.95 ± 2.4	0.604 ± 0.007
323.15 K, x1 = 0.4029	846.73 ± 2.2	0.562 ± 0.007
323.15 K, x1 = 0.5018	864.62 ± 2	0.535 ± 0.007
323.15 K, x1 = 0.5905	879.49 ± 1.9	0.524 ± 0.007
323.15 K, x1 = 0.7267	900.94 ± 1.7	0.517 ± 0.007
323.15 K, x1 = 0.8053	912.58 ± 1.6	0.519 ± 0.007
323.15 K, x1 = 0.8494	918.93 ± 1.5	0.521 ± 0.007
323.15 K, x1 = 1	939.78 ± 1.3	0.541 ± 0.007
333.15 K, x1 = 0.1015	771.12 ± 2.9	0.637 ± 0.007
333.15 K, x1 = 0.1993	793.64 ± 2.7	0.559 ± 0.007
333.15 K, x1 = 0.3027	815.77 ± 2.5	0.515 ± 0.007
333.15 K, x1 = 0.4029	835.41 ± 2.3	0.485 ± 0.007
333.15 K, x1 = 0.5018	853.29 ± 2.1	0.467 ± 0.007
333.15 K, x1 = 0.5905	868.1 ± 2	0.46 ± 0.007
333.15 K, x1 = 0.7267	889.56 ± 1.8	0.458 ± 0.007
333.15 K, x1 = 0.8053	901.29 ± 1.7	0.461 ± 0.007
333.15 K, x1 = 0.8494	907.67 ± 1.6	0.464 ± 0.007
333.15 K, x1 = 1	928.69 ± 1.4	0.483 ± 0.007
343.15 K, x1 = 0.1015	760.13 ± 3	0.523 ± 0.007
343.15 K, x1 = 0.1993	782.3 ± 2.8	0.47 ± 0.007
343.15 K, x1 = 0.3027	804.17 ± 2.6	0.44 ± 0.007
343.15 K, x1 = 0.4029	823.53 ± 2.4	0.421 ± 0.007
343.15 K, x1 = 0.5018	841.14 ± 2.2	0.41 ± 0.007
343.15 K, x1 = 0.5905	855.92 ± 2.1	0.407 ± 0.007
343.15 K, x1 = 0.7267	877.3 ± 1.9	0.409 ± 0.007
343.15 K, x1 = 0.8053	888.96 ± 1.8	0.413 ± 0.007
343.15 K, x1 = 0.8494	895.36 ± 1.7	0.417 ± 0.007
343.15 K, x1 = 1	916.33 ± 1.6	0.435 ± 0.007

CCOC(=O)OCC [diethyl carbonate] + CO
Conditions	mass density [kg/m3]	viscosity [mPa·s]
293.15 K, x1 = 0.1045	839.93 ± 2.2	0.599 ± 0.007
293.15 K, x1 = 0.2128	874.69 ± 1.9	0.622 ± 0.007
293.15 K, x1 = 0.2835	892.08 ± 1.8	0.634 ± 0.007
293.15 K, x1 = 0.4025	915.12 ± 1.6	0.655 ± 0.007
293.15 K, x1 = 0.5161	932.04 ± 1.4	0.679 ± 0.007
293.15 K, x1 = 0.6057	942.83 ± 1.3	0.7 ± 0.007
293.15 K, x1 = 0.7015	952.67 ± 1.2	0.723 ± 0.008
293.15 K, x1 = 0.8	961.18 ± 1.1	0.747 ± 0.008
293.15 K, x1 = 0.8845	967.44 ± 1.1	0.772 ± 0.008
293.15 K, x1 = 1	975 ± 1	0.801 ± 0.008
298.15 K, x1 = 0.1045	834.64 ± 2.3	0.567 ± 0.007
298.15 K, x1 = 0.2128	869.33 ± 2	0.588 ± 0.007
298.15 K, x1 = 0.2835	886.65 ± 1.8	0.598 ± 0.007
298.15 K, x1 = 0.4025	909.56 ± 1.6	0.616 ± 0.007
298.15 K, x1 = 0.5161	926.35 ± 1.4	0.637 ± 0.007
298.15 K, x1 = 0.6057	937.11 ± 1.4	0.656 ± 0.007
298.15 K, x1 = 0.7015	946.89 ± 1.3	0.677 ± 0.007
298.15 K, x1 = 0.8	955.37 ± 1.2	0.696 ± 0.007
298.15 K, x1 = 0.8845	961.65 ± 1.1	0.715 ± 0.008
298.15 K, x1 = 1	968.97 ± 1.1	0.746 ± 0.008
303.15 K, x1 = 0.1045	829.8 ± 2.3	0.527 ± 0.007
303.15 K, x1 = 0.2128	864.12 ± 2	0.546 ± 0.007
303.15 K, x1 = 0.2835	881.42 ± 1.9	0.556 ± 0.007
303.15 K, x1 = 0.4025	904.25 ± 1.6	0.573 ± 0.007
303.15 K, x1 = 0.5161	921 ± 1.5	0.593 ± 0.007
303.15 K, x1 = 0.6057	931.74 ± 1.4	0.611 ± 0.007
303.15 K, x1 = 0.7015	941.49 ± 1.3	0.63 ± 0.007
303.15 K, x1 = 0.8	949.97 ± 1.2	0.651 ± 0.007
303.15 K, x1 = 0.8845	956.23 ± 1.2	0.671 ± 0.007
303.15 K, x1 = 1	962.39 ± 1.1	0.695 ± 0.008
313.15 K, x1 = 0.1045	819.68 ± 2.4	0.462 ± 0.007
313.15 K, x1 = 0.2128	853.64 ± 2.1	0.48 ± 0.007
313.15 K, x1 = 0.2835	870.71 ± 2	0.49 ± 0.007
313.15 K, x1 = 0.4025	893.3 ± 1.8	0.503 ± 0.007
313.15 K, x1 = 0.5161	909.94 ± 1.6	0.521 ± 0.007
313.15 K, x1 = 0.6057	920.59 ± 1.5	0.537 ± 0.007
313.15 K, x1 = 0.7015	930.26 ± 1.4	0.556 ± 0.007
313.15 K, x1 = 0.8	938.67 ± 1.3	0.572 ± 0.007
313.15 K, x1 = 0.8845	944.93 ± 1.3	0.587 ± 0.007
313.15 K, x1 = 1	952.32 ± 1.2	0.61 ± 0.007
323.15 K, x1 = 0.1045	809.45 ± 2.5	0.408 ± 0.007
323.15 K, x1 = 0.2128	843 ± 2.2	0.424 ± 0.007
323.15 K, x1 = 0.2835	859.86 ± 2.1	0.432 ± 0.007
323.15 K, x1 = 0.4025	882.25 ± 1.9	0.444 ± 0.007
323.15 K, x1 = 0.5161	898.72 ± 1.7	0.461 ± 0.007
323.15 K, x1 = 0.6057	909.28 ± 1.6	0.477 ± 0.007
323.15 K, x1 = 0.7015	918.88 ± 1.5	0.493 ± 0.007
323.15 K, x1 = 0.8	927.24 ± 1.4	0.507 ± 0.007
323.15 K, x1 = 0.8845	933.43 ± 1.4	0.523 ± 0.007
323.15 K, x1 = 1	939.78 ± 1.3	0.541 ± 0.007
333.15 K, x1 = 0.1045	796.31 ± 2.7	0.363 ± 0.007
333.15 K, x1 = 0.2128	830.09 ± 2.3	0.376 ± 0.007
333.15 K, x1 = 0.2835	847.11 ± 2.2	0.384 ± 0.007
333.15 K, x1 = 0.4025	869.76 ± 2	0.397 ± 0.007
333.15 K, x1 = 0.5161	886.44 ± 1.8	0.41 ± 0.007
333.15 K, x1 = 0.6057	897.15 ± 1.7	0.426 ± 0.007
333.15 K, x1 = 0.7015	906.9 ± 1.6	0.441 ± 0.007
333.15 K, x1 = 0.8	915.39 ± 1.6	0.454 ± 0.007
333.15 K, x1 = 0.8845	921.71 ± 1.5	0.466 ± 0.007
333.15 K, x1 = 1	928.69 ± 1.4	0.483 ± 0.007
